Assay results as given in PubChem BioAssay (NCI).
Several values for one entry are separate records, joined by “and”; a condition that tells them apart may be missing. Equal values may be shown once.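 96-well plates; 48 h exposure; 5 concentrations. Endpoints by linear interpolation between flanking doses. Not reached: highest tested concentration assigned. GI50 = concentration required for 50% inhibition of growth. Definition used: TGI = concentration required for complete inhibition of growth.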

Columns and labels:
Test in all cases: NCI-60 cell line screen, 48 h
[1] = test system: UACC-62 melanoma
[2] = test system: NCI-H522 lung
[3] = test system: LOX IMVI melanoma
[4] = test system: SW-620 colon
[5] = test system: UO-31 renal
[6] = test system: MCF7 breast
[7] = test system: 786-0 renal
[8] = test system: NCI-H226 lung
[9] = test system: CAKI-1 renal
[10] = test system: SNB-19 CNS
[11] = test system: RXF 393 renal
[12] = test system: NCI/ADR-RES ovarian
[13] = test system: SF-268 CNS
[14] = test system: IGROV1 ovarian

Row | Compound | TGI [1] | TGI [2] | TGI [3] | TGI [4] [µM] | TGI [5] [µM] | TGI [6] | TGI [7] [µM] | TGI [8] [µM] | TGI [9] [µM] | TGI [10] [µM] | TGI [11] [µM] | TGI [12] [µM] | TGI [13] [µM] | TGI [14] [µM] | GI50 [1] [µM] | GI50 [2] [µM] | GI50 [6] [µM] | GI50 [8] [µM] | GI50 [11] [µM] | GI50 [13] [µM]
1 | NC(=O)N(O)c1cccc(Br)c1 | > 100 µM | > 100 µM | > 100 µM | > 100 | > 100 | > 100 µM | > 100 | > 100 | > 100 | > 100 | > 100 | > 100 | > 100 | > 100 | – | – | – | – | – | –
2 | O=C1c2ccccc2C(=O)N1c1ccc(OCCN2CCCCC2)cc1 | > 100 µM | > 100 µM | > 100 µM | > 100 | – | > 100 µM | > 100 | > 100 | > 100 | > 100 | > 100 | > 100 | > 100 | > 100 | – | – | – | – | – | –
3 | C=CCn1c(=O)c(C)cn(/C(=C/C(=O)OCC)C(=O)OCC)c1=O | 34.4 µM | 10.9 µM | 21.3 µM | 15.5 | 29.1 | 18.9 µM | 19.2 | > 54.7 | 3.65 | > 86.1 | 28.2 | 55.5 | 44.3 | 31.4 | – | – | – | – | – | –
4 | CC1=C(C(=O)OC(C)C)C(c2ccccc2[N+](=O)[O-])C(C(=O)OC(CO[N+](=O)[O-])CO[N+](=O)[O-])=C(C)N1 (stereo not given) | 8.14 µM | 8.45 µM | 11.3 µM | 18.9 | 16.2 | 27.9 µM | 14.4 | 28.5 | 19.3 | 23.8 | 15.5 | 12.2 | 16.8 | 27.9 | – | – | – | – | – | –
5 | O/N=C\c1cc(O)c(O)c(/C=N/O)c1 | > 100 µM | 71.9 µM | > 100 µM | > 100 | > 100 | > 100 µM | – | 78.6 | > 100 | > 100 | > 100 | > 100 | > 100 | > 100 | – | – | – | – | – | –
6 | Nc1ncc(Cc2nc3ccccc3s2)s1 | > 100 µM | > 100 µM | > 100 µM | > 100 | > 100 | > 100 µM | > 100 | 92.8 | > 100 | > 100 | > 100 | > 100 | > 100 | > 100 | – | – | – | – | – | –
7 | CC(=O)Oc1c(OC(C)=O)c(-c2ccc(O)c(O)c2)c(O)c(O)c1-c1ccc(O)cc1 | 45.4 µM and 75.5 µM | 45.2 µM and 33 µM | 94 µM and 95.9 µM | > 100 | > 100 | 35.9 µM and > 100 µM | – | > 100 | > 100 | > 100 | > 100 | > 100 | > 100 | > 100 | 21.7 | 20.1 | 18.8 | 79.7 | > 100 | 80.6
8 | CC(C)(C)OC(=O)N1CCC23CCCC2C(=O)CC=C13 (stereo not given) | > 100 µM | > 100 µM | > 100 µM | > 100 | > 100 | > 100 µM | > 100 | > 100 | > 100 | > 100 | > 100 | > 100 | > 100 | > 100 | – | – | – | – | – | –
